The values that follow come from patent publication US20220340685A1, “COMBINATION THERAPY WITH ENTPD2 AND CD73 ANTIBODIES” (Novartis AG, priority 2019, published 2022).

The assay has as its system human ENTPD2 engineered B16LM3 clone B5. Put plainly: Human ENTPD2 engineered B16LM3 clone B5 model, combination with A2AR antagonist NIR178. The class given is in vivo. To be noted: NIR178 p.o. 4 days on and 3 days off, 50 or 200 mg/kg; antibody or isotype 10 mg/kg i.v. day 1. The protocol:
Human ENTPD2-engineered B16LM3 clone B5 was established in female C57BL/6 mice by subcutaneous injection of 0.5×10^6 cells into the right flank of each mouse. Once tumors reached approximately 50 mm^3, mice were randomized according to tumor volume into treatment groups (n=8 per group). Mice received an intravenous (i.v.) treatment of either anti-ENTPD2 mAb1 at a final dose of 10/mg/kg or a non-specific human IgG1 isotype control 10 mg/kg on day 1 of study. NIR178 was administered per os (p.o.) for 4 days on and 3 days off, starting at the beginning of study at either 50 mg/kg or 200 mg/kg. All doses were adjusted to individual mouse body weights. The study was carried out for thirteen days post treatment initiation and tumor volumes were assessed every other day to assess efficacy.

As for `Nc1nc(-n2cccn2)nc(-n2cccn2)c1Br` [NIR178, 5-bromo-2,6-di-(1H-pyrazol-1-yl)pyrimidine-4-amine], the “anti-tumor efficacy” value is given as “No significant anti-tumor efficacy”.
